O=C(O)c1cc2ccccc2cc1O
solubility (mole fraction)
Details | in acetic acid | in acetone | in ethanol | in ethyl acetate | in isobutanol | in isopropanol | in methanol | in methyl acetate | in n-butanol | in n-propanol
293.15 K | 0.00556 | 0.0363 | 0.0218 | 0.0222 | 0.0147 | 0.0234 | 0.0131 | 0.0204 | 0.0268 | 0.0234
298.15 K | 0.00672 | 0.0389 | 0.0258 | 0.0251 | 0.0174 | 0.0267 | 0.0155 | 0.0225 | 0.03 | 0.0259
303.15 K | 0.00786 | 0.0423 | 0.0294 | 0.0278 | 0.0207 | 0.0306 | 0.018 | 0.025 | 0.0346 | 0.0288
308.15 K | 0.00913 | 0.0461 | 0.0331 | 0.0309 | 0.0236 | 0.035 | 0.0208 | 0.0286 | 0.0382 | 0.0323
313.15 K | 0.0105 | 0.0506 | 0.037 | 0.0338 | 0.0279 | 0.0406 | 0.0239 | 0.0318 | 0.0431 | 0.0372
318.15 K | 0.0121 | 0.0547 | 0.0415 | 0.0375 | 0.0316 | 0.0446 | 0.0271 | 0.0349 | 0.0466 | 0.0402
323.15 K | 0.014 | 0.0607 | 0.0469 | 0.0417 | 0.0377 | 0.0514 | 0.0313 | 0.0402 | 0.0529 | 0.0453
328.15 K | 0.0164 | 0.0661 | 0.0537 | 0.0468 | 0.0421 | 0.0565 | 0.0358 | 0.0447 | 0.0579 | 0.0513
333.15 K | 0.0192 | – | 0.0619 | 0.0533 | 0.0501 | 0.0649 | 0.0415 | – | 0.0663 | 0.0574

Reference: BigSolDB 2.1
